Data on two compounds can be found in patent US10912764B2, “Salinosporamides and methods of use thereof” (The Regents of the University of California, priority 2002, dated 2021).

What is called IC50 is the concentration needed to halve the response being measured.

Converted amounts (≈) assume the structure as drawn. Like-named read-outs stand apart in the source and are kept apart here. Where only a bound is given, the exact number is not on record here.

One data set concerns Candida albicans. Briefly: Antifungal screening, Candida albicans. Conditions: antifungal activity. It counts as cell-based.
Data set [1] has as its system Candida albicans (amphoterocin B resistant). As to the kind of experiment: Antifungal screening, Candida albicans (amphoterocin B resistant). It counts as cell-based.
Data set [2] has as its system Staphylococcus aureus (methecillin resistant). Briefly: Antibacterial screening, Staphylococcus aureus. It counts as cell-based.
Data set [3] has as its system Enterococcus faecium (vanomycin resistant). Briefly: Antibacterial screening, Enterococcus faecium. It counts as cell-based.
Data set [4] is described as follows: Solubility in organic solvents. To be noted: CHCl3, methanol, and other polar solvents like DMSO, acetone, acetonitrile, benzene, pyridine, N,N-dimethyformamide.
In another data set the test system is HCT-116. As to the kind of experiment: HCT-116 human colon cancer cell cytotoxicity assay.
Where [5] appears, read: HCT-116, read-out: IC50, cytotoxic activity against human colon cancer cells.

As to `C[C@@]12OC(=O)[C@]1([C@@H](O)[C@@H]1C=CCCC1)NC(=O)[C@@H]2CCCl` [Salinosporamide A], the IC50 with Candida albicans is 250 µg/mL (≈ 797 µM); in data set [1], > 250 µg/mL; in data set [2] (Staphylococcus aureus) it was > 250 µg/mL; in data set [3] (Enterococcus faecium) it was > 250 µg/mL; with HCT-116 (HCT-116, read-out: IC50, HCT-116), 0.011 µg/mL (≈ 0.0351 µM); in the data set on HCT-116 (setting [5]), 0.011 µg/mL (≈ 0.0351 µM). Besides, the “antibacterial activity, Staphylococcus aureus” value in data set [2] is on record as “no antibacterial activity”. Also, the “antibacterial activity, Enterococcus faecium” value in data set [3] is given as “no antibacterial activity”. The solubility result in data set [4] is “soluble”.

On to `COc1cc([C@@H]2c3cc4c(cc3[C@@H](O[C@@H]3O[C@@H]5CO[C@@H](C)O[C@H]5[C@H](O)[C@H]3O)[C@H]3COC(=O)[C@H]23)OCO4)cc(OC)c1O` [etoposide, reference compound], for which, in the data set on HCT-116 (setting [5]), the IC50 amounted to 0.828 µg/mL (≈ 1.41 µM).
